Active and inactive are the calls of the source.
Experiments:
Aminopeptidase N = molecular target: T1, Aminopeptidase N (Plasmodium falciparum FcB1/Columbia, UniProt O96935); experiment: P. falciparum M1AAP inhibitors, biochemical, fluorogenic H-Leu-NHMec substrate, 1536-well (AID 1445); design: species or system Plasmodium falciparum 3D7, 3D7
T1 sequence (O96935 whole entry): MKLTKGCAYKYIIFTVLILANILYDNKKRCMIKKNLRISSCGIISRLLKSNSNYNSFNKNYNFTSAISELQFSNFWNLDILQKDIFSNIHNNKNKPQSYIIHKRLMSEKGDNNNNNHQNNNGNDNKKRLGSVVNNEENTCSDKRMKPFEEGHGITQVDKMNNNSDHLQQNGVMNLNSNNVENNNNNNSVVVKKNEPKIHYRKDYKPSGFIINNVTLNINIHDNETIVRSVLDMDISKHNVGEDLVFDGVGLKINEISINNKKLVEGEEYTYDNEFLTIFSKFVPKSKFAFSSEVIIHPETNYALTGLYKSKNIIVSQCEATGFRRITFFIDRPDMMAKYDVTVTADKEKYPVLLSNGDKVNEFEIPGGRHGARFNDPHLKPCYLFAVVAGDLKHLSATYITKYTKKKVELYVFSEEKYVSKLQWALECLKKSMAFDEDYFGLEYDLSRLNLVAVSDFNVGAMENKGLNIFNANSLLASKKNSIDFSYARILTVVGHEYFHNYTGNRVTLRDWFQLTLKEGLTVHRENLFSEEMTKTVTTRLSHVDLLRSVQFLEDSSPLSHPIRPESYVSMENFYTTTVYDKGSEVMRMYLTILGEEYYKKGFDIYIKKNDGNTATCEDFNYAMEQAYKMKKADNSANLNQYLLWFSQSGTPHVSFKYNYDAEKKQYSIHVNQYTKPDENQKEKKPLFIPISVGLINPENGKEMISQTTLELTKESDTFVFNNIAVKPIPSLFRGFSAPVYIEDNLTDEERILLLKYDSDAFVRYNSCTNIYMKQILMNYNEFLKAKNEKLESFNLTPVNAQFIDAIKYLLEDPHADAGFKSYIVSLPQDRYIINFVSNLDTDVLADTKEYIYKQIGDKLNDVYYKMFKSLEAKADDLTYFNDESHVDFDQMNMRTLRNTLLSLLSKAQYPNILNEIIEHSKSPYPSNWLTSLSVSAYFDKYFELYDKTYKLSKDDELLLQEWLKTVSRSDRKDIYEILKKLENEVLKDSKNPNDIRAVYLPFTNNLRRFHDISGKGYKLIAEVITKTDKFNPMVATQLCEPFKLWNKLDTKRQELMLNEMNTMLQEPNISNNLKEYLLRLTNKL

Aspartyl aminopeptidase = Aspartyl aminopeptidase (Plasmodium falciparum 3D7, UniProt Q8I2J3); experiment: Counterscreen for inhibitors of M1 and M17 aminopeptidases: QFRET-based biochemical high throughput dose response assay for inhibitors of the Plasmodium falciparum M18 Aspartyl Aminopeptidase (PFM18AAP). [Related PubChem assays: 1619 (Screening assay (M17LAP inhibitors).), 1445 (Screening assay (M1AAP inhibitors).)]
Procathepsin L = Procathepsin L (Homo sapiens, UniProt P07711); experiment: cathepsin L inhibitors, dose response, counter-screen for M1/M17 aminopeptidase inhibitor project, biochemical, QFRET, 1536-well (AID 2214)
[1] = molecular target: T2, Induced myeloid leukemia cell differentiation protein Mcl-1 (Homo sapiens, UniProt Q07820); experiment: MCL1-BIM BH3 interaction inhibitors, dose response, biochemical, fluorescence polarization, BIM-BH3 peptide, 1536-well (AID 2217)
[2] = molecular target: DNA (cytosine-5)-methyltransferase 1 (Homo sapiens, UniProt P26358); experiment: DNMT1 methyltransferase inhibitors, confirmation, biochemical, fluorescent molecular beacon (AID 602386); assay type: functional
Bcl-2-like protein 1 = Bcl-2-like protein 1 (Homo sapiens, UniProt Q07817); experiment: BCL-XL inhibitors, dose response, selectivity assay for MCL1 inhibitor project, biochemical, fluorescence polarization, 1536-well (AID 2218)
Albumin = Albumin (Bos taurus, UniProt P02769); experiment: Counterscreen for inhibitors of T-cell receptor (TCR)-CD3 interaction: Fluorescence-based biochemical high throughput dose response assay to identify inhibitors of T-cell receptor (TCR)-CD3 interaction using a TAMRA-labeled BSA probe.; assay type: functional
[3] = molecular target: T2, Induced myeloid leukemia cell differentiation protein Mcl-1; assay type: functional
[4] = molecular target: T3, Probable nicotinate-nucleotide adenylyltransferase (Staphylococcus aureus (strain N315), UniProt P65502); assay type: functional, Staphylococcus aureus subsp. aureus N315; conditions: read-out: IC50_Mean;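 as to IC50 Mean: confirmatory dose-response retesting of NadD inhibitor hits first found in an ultra-high-throughput screen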
[5] = molecular target: T3, Probable nicotinate-nucleotide adenylyltransferase; assay type: functional, Staphylococcus aureus subsp. aureus N315
[6] = molecular target: T4, Rac GTPase-activating protein 1 (Homo sapiens, UniProt Q9H0H5); experiment: MgcRacGAP GTPase-activating activity inhibitors, confirmation, biochemical, ADP Hunter fluorescence, primary and confirmatory (AID 624330); assay type: functional
T4 sequence (Q9H0H5 whole entry): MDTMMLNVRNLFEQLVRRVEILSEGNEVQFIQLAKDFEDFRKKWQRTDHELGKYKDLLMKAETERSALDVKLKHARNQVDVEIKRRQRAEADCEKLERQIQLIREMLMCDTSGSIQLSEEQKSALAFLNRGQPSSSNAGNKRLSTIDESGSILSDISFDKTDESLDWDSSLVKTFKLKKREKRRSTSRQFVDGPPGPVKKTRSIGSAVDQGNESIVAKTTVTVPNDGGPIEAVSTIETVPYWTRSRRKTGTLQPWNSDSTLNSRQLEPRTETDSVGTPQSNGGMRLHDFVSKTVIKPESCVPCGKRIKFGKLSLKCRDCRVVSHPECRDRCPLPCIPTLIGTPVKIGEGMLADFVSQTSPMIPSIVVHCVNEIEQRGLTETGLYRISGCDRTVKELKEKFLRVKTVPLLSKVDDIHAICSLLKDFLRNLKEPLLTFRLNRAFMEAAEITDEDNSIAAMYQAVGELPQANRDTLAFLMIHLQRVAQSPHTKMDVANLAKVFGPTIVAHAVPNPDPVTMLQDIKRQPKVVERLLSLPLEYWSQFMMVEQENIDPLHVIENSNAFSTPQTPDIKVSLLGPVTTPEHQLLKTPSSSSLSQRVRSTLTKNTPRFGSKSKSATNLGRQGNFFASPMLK

NADPH oxidase 1 = NADPH oxidase 1 (Homo sapiens, UniProt Q9Y5S8); experiment: Luminescence-based cell-based dose response assay to identify inhibitors of NADPH oxidase 1 (NOX1).; assay type: functional
[7] = molecular target: Low molecular weight phosphotyrosine protein phosphatase (Homo sapiens, UniProt P24666); assay type: functional; conditions: read-out: IC50_Mean;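 also: Dose-response confirmation assay measuring inhibition of LMPTP enzyme activity by fluorescence intensity read-out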
Estrogen receptor beta [8] = molecular target: T5, Estrogen receptor beta (Homo sapiens, UniProt Q92731); experiment: ERβ–SRC-3 coactivator interaction inhibitors, confirmation, orthogonal assay, biochemical, ELISA, streptavidin-HRP readout (AID 1060)
Estrogen receptor beta [9] = molecular target: T5, Estrogen receptor beta
Estrogen receptor = Estrogen receptor (Homo sapiens, UniProt P03372);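 also: potency for inhibiting coactivator peptide recruitment to the receptor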
[10] = microbe, parasite or virus in culture; assay type: functional; conditions: Mycobacterium tuberculosis
[11] = A High Throughput Confirmatory Assay used to Identify Novel Compounds that Inhibit Mycobacterium Tuberculosis in the absence of Glycerol.; assay type: functional
Vero = experiment: West Nile virus antiviral activity, cell-based, CPE readout (AID 1621); assay type: functional; conditions: Chlorocebus sabaeus
[12] = M. tuberculosis growth inhibition, HTS (AID 449762); assay type: functional

T2 sequence (Q07820 whole entry): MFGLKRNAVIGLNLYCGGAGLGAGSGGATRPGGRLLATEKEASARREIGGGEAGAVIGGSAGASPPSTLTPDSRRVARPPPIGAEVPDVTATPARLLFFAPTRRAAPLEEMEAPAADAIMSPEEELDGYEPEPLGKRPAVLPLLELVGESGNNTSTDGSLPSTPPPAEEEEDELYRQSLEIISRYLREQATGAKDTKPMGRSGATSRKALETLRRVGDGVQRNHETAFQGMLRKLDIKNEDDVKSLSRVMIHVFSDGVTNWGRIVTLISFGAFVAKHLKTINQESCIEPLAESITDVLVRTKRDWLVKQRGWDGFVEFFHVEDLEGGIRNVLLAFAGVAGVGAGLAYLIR
T5 sequence (Q92731 whole entry): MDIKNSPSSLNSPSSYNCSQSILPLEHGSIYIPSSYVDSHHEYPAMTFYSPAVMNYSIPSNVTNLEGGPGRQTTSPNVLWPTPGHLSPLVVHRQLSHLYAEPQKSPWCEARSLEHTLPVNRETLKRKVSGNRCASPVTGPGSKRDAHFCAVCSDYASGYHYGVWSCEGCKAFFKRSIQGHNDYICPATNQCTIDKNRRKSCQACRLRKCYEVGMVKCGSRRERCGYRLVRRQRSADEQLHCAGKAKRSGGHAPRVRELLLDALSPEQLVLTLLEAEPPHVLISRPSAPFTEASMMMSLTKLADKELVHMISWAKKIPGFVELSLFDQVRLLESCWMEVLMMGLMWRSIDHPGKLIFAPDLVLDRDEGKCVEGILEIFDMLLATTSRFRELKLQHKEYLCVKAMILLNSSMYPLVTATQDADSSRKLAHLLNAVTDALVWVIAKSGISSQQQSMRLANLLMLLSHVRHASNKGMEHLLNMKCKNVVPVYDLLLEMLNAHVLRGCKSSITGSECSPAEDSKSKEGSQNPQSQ
T3 sequence (P65502 whole entry): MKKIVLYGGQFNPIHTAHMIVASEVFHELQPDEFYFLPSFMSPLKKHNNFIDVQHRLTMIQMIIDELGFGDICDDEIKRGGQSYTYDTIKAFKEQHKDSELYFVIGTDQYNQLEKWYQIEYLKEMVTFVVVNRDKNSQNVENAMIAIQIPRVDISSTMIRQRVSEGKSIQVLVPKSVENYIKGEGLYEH
Albumin, sequence (P02769 whole entry): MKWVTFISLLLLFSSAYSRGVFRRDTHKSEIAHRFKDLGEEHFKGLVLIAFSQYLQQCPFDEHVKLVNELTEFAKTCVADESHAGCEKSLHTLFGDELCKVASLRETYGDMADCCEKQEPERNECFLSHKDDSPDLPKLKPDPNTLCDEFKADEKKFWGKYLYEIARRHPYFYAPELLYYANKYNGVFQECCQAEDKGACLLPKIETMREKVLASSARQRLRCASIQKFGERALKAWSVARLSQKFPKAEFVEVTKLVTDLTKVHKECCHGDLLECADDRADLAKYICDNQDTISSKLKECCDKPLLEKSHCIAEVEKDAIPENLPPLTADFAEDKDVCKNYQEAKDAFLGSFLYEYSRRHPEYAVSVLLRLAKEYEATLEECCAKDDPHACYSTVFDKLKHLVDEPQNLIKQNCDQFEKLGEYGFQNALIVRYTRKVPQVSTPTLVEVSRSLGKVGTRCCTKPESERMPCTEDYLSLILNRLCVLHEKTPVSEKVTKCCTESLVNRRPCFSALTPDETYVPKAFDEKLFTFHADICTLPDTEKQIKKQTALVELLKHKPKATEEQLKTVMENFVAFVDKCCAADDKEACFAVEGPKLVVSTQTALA
NADPH oxidase 1, sequence (Q9Y5S8 whole entry): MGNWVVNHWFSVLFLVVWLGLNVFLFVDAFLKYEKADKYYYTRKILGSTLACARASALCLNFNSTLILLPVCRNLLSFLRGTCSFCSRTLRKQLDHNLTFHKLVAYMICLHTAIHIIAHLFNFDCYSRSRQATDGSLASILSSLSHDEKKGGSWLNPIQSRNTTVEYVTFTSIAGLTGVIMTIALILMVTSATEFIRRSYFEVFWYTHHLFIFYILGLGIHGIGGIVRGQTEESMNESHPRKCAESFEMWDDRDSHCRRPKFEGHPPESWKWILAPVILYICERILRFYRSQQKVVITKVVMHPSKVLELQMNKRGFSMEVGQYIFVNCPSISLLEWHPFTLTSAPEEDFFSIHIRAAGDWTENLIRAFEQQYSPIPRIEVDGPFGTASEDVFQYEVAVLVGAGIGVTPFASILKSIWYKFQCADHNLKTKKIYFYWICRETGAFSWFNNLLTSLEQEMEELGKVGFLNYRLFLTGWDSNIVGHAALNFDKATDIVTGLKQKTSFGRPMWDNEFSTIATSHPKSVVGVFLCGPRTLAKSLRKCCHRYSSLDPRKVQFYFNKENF
Procathepsin L, sequence (P07711 whole entry): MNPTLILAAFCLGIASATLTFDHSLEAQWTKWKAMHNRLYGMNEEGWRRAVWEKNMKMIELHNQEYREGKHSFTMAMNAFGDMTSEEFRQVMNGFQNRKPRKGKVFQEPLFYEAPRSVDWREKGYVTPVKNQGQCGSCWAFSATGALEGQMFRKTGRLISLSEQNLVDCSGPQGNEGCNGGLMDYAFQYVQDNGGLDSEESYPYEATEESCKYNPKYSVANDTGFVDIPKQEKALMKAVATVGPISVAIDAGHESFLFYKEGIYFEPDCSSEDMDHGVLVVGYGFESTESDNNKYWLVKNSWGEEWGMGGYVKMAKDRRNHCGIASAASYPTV
DNA (cytosine-5)-methyltransferase 1, sequence (P26358 whole entry): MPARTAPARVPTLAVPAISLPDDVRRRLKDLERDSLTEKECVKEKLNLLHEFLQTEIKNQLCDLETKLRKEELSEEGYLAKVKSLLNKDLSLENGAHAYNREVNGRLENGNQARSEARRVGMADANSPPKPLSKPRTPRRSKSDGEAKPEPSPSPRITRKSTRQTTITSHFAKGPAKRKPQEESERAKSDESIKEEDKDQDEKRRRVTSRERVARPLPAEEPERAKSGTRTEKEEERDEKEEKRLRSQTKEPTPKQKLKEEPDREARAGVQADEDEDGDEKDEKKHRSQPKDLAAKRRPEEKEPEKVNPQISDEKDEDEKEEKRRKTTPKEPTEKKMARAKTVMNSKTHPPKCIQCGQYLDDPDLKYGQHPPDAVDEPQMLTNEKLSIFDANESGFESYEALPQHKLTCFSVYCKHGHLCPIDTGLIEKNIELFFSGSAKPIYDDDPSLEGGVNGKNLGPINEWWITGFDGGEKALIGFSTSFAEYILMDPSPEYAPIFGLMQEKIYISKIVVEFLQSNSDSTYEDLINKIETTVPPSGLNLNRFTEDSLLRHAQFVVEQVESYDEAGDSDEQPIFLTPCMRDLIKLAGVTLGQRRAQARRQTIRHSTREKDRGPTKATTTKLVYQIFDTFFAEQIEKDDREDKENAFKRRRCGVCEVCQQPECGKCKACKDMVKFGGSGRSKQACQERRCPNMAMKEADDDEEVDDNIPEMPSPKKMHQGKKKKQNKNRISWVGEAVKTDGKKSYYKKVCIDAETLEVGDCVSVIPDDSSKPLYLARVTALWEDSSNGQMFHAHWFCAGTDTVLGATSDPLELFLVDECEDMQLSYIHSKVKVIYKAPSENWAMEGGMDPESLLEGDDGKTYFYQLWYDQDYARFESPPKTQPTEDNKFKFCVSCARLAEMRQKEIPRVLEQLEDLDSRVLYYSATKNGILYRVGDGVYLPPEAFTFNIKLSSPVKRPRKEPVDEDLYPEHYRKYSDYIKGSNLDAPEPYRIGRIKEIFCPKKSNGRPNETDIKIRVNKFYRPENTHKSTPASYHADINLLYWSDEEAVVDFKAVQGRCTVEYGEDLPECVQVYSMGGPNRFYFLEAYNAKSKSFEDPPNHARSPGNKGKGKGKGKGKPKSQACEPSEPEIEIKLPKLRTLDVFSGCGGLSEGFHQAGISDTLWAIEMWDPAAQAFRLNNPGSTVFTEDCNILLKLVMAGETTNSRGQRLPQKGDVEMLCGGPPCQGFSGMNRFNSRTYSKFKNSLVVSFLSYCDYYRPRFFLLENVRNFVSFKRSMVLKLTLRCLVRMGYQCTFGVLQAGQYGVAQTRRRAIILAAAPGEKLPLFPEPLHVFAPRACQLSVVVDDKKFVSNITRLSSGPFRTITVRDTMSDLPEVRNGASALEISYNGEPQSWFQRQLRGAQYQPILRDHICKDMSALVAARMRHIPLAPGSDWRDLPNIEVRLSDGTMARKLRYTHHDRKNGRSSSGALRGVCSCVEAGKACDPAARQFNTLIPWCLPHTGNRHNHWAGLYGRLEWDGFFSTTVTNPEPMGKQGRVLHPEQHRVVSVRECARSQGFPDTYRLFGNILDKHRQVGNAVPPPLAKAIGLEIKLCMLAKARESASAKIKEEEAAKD
Aspartyl aminopeptidase, sequence (Q8I2J3 whole entry): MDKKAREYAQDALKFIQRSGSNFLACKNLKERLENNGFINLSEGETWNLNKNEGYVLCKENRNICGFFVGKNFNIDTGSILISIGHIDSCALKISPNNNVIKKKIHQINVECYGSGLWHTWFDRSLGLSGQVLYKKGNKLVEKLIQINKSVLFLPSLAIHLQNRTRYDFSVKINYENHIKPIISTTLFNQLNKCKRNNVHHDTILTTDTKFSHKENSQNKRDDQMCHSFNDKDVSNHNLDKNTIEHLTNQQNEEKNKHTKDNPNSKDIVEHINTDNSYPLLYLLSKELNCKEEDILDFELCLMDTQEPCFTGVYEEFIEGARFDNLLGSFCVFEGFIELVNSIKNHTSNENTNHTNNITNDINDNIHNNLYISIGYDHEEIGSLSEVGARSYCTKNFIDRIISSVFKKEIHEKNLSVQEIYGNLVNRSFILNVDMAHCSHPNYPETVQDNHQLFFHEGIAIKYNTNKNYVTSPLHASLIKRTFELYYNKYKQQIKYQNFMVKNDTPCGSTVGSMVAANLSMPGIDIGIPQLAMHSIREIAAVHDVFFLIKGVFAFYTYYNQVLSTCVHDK
Low molecular weight phosphotyrosine protein phosphatase, sequence (P24666 whole entry): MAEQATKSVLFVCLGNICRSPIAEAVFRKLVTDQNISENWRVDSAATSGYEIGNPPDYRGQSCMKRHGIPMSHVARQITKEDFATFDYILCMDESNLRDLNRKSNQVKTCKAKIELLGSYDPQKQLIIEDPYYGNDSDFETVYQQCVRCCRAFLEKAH

Question: Which IC50 (Aminopeptidase N) does the source give for `O=C(NCc1ccc2c(c1)OCO2)C1CCN(S(=O)(=O)c2ccc(Br)s2)CC1` here?
Answer: 2.11 µM (active)

Question: And the IC50 (Aspartyl aminopeptidase)?
Answer: > 73.5 µM (not active)

Question: What about the IC50 (Procathepsin L) of the same compound?
Answer: > 59.6 µM (not active)

Question: Which results are given for `O=C(Nc1cccc(S(=O)(=O)NC2=NCCC2)c1)c1cc(-c2ccco2)nc2ccccc12`?
Answer: IC50 [1]: 4.26 µM (active); IC50 [2]: 3.71 µM (active); IC50 (Bcl-2-like protein 1): > 109 µM (not active); IC50 (Albumin): > 94.1 µM (inactive); IC50 [3]: 1.09 µM (active); IC50 [4]: 22.7 µM (active); IC50 [5]: 9.01 µM (active)

Question: For `CCN(CC)c1ccc(NC(=O)Nc2ccccc2)cc1`, which IC50 [6] is on record?
Answer: 45 µM (active)

Question: And the IC50 (NADPH oxidase 1)?
Answer: 0.176 µM (active)

Question: With `N=c1c(C(=O)NCc2ccc3c(c2)OCO3)cc2c(=O)n3ccccc3nc2n1Cc1cccnc1` as the compound, how does the IC50 [7] read?
Answer: 17.1 µM (active)

Question: And the IC50 (Estrogen receptor beta [8])?
Answer: > 50 µM (not active)

Question: What about the IC50 (Estrogen receptor beta [9]) of the same compound?
Answer: 5.48 µM (active)

Question: What about the IC50 [3] of the same compound?
Answer: 4.3 µM (active)

Question: Which IC50 (Estrogen receptor) does the source give for `CN(CC(=O)NC(=O)NCc1ccco1)Cc1nc(O)c2ccccc2n1` here?
Answer: 13.7 µM (active)

Question: Which results are given for `COc1ccc(C2c3[nH]c4ccccc4c3CCN2C(=O)c2cc3ncccn3n2)c(F)c1` (stereo unspecified)?
Answer: CC50 [10]: > 40 µM (active); IC50 [11]: > 100 µM (active); IC50 (Vero): 34.6 µM (active); IC50 [12]: > 100 µM (active)
